Measurements reported in patent publication US7786131B2, “Pyrimido[5,4-d]pyrimidines derivatives as irreversible inhibitors of tyrosine kinases” (Warner-Lambert Company, priority 1996, dated 2010).
Where two headings read alike, the source gives them in different places.

Columns and labels:
c-src tyrosine kinase = c-src tyrosine kinase (UniProt P00523); experiment: Tyrosine kinase assay, c-src; assay type: biochemical
[1] = target: EGF receptor tyrosine kinase (Homo sapiens, UniProt P00533); experiment: Tyrosine kinase assay, isolated EGF receptor tyrosine kinase; assay type: biochemical
Chain of EGF receptor tyrosine kinase (P00533 25-1210): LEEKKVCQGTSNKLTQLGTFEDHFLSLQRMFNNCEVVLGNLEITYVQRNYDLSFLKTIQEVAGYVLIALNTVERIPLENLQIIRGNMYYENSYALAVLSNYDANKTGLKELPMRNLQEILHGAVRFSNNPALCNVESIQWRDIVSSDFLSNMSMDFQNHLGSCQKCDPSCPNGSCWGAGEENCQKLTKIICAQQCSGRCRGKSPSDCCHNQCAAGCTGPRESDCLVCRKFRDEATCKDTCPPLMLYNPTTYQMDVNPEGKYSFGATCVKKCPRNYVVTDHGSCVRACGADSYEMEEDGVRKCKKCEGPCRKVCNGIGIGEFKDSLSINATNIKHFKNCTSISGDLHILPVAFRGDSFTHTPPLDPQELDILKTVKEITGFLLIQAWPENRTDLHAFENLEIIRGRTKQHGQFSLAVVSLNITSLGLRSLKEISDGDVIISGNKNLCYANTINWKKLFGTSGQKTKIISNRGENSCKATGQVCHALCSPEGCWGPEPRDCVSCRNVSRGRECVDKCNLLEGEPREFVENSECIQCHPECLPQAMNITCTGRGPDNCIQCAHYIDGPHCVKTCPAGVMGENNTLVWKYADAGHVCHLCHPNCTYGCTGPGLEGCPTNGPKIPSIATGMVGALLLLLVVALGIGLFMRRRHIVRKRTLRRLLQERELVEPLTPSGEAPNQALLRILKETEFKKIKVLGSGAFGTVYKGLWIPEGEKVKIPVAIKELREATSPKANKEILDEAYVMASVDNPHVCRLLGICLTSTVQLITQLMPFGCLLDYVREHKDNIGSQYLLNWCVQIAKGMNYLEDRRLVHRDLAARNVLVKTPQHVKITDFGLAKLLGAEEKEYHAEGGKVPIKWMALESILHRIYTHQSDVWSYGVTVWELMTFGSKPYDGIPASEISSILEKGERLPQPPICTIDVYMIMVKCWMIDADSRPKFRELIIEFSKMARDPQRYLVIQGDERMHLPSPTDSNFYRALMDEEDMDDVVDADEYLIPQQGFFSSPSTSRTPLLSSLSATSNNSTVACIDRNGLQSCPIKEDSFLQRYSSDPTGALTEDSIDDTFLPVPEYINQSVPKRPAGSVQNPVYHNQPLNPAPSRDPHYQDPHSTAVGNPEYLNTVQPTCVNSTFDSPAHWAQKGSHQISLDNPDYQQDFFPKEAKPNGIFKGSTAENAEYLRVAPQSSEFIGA

[2] = target: T1, EGF receptor autophosphorylation in A431 cells (Homo sapiens, UniProt P00533); experiment: Irreversibility test: recovery of EGF receptor autophosphorylation after washout; assay type: cell-based; details: for remaining activity at 2 µM: A-431, A431 cells treated 2 hours with 2 μM, read-out: % of Control Autophosphorylation
T1 construct: A431 human epidermoid carcinoma cells were grown in 6-well plates; endogenous in cells; host or cells: A431 human epidermoid carcinoma cells
T1 sequence (P00533 25-1210): as above
Method: (§1) Extracts were made by lysing the monolayers in 0.2 mL of boiling Laemlli buffer (2% sodium dodecyl sulfate, 5% beta-mercaptoethanol, 10% glycerol and 50 mM tris[hydroxymethyl]aminomethane (Tris), pH 6.8), and the lysates were heated to 100° C. for 5 minutes. Proteins in the lysate were separated by polyacrylamide gel electrophoresis and electrophoretically transferred to nitrocellulose. The membrane was washed once in 10 mM Tris, pH 7.2, 150 mM NaCl, 0.01% Azide (TNA), and blocked overnight in TNA containing 5% bovine serum albumin and 1% ovalbumin. The membrane was blotted for 2 hours with antiphosphotyrosine antibody (UBI, 1 μg/mL in blocking buffer) and then washed twice in TNA, once in TNA containing 0.05% Tween-20 detergent and 0.05% nonidet P-40 detergent and twice in TNA. […] Band intensities were determined with a Molecular Dynamics laser densitometer.
Duplicate sets of cells were treated with 2 μM of designated compound to be tested as an irreversible inhibitor for either 1 or 2 hours. One set of cells was then stimulated with 100 ng/mL of EGF for 5 minutes and extracts made as described under the western blotting procedure. The other set of cells were washed free of the compound with warmed serum-free media, incubated for 2 hours, washed again, incubated another 2 hours, washed again, and then incubated a further 4 hours. This set of cells was then stimulated with EGF and extracts made similar to the first set of cells.

[3] = target: T2, FGF receptor intracellular kinase domain (FGF1) (Homo sapiens, UniProt P11362); experiment: Tyrosine kinase assay, FGF receptor; assay type: biochemical
T2 construct: Assays using intracellular kinase domains of PDGF, FGF, and insulin receptors
T2 sequence (P11362 478-767 limits assumed): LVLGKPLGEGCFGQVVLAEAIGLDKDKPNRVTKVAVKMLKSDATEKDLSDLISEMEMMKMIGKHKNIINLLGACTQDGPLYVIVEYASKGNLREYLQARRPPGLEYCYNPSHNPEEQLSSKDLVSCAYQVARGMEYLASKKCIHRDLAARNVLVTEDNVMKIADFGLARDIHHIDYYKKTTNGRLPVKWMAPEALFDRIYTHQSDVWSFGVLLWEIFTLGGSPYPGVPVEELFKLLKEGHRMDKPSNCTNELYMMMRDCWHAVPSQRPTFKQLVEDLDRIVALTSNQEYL

[4] = test system: NIH 3T3 fibroblast transfected with the h-EGF receptor; experiment: EGFR tumor xenograft in nude mice
Method: Female nude mice (NCr nu/nu, Taconic Farms) 18-20 g were implanted SC with tumor fragments (approximately 30 mg) in the region of the right axilla on Day 0. […] The vehicle was 6% dimethyl acetamide in 50 mM lactate buffer, pH 4.0Tumor volumes were recorded three times per week by measuring the length and width of the individual tumors and calculating the mass in milligrams according to the formula (a×b^2)/2, where a and b are the length and width of the tumor. Percent T/C (treated/control) was calculated based on the ratio of the median tumor volume of the treated tumors compared with the median tumor volume of the control tumors on specified measurement days.

[5] = target: T3, insulin receptor intracellular kinase domain (Homo sapiens, UniProt P06213); experiment: Tyrosine kinase assay, insulin receptor; assay type: biochemical
T3 construct: Assays using intracellular kinase domains of PDGF, FGF, and insulin receptors
T3 sequence (P06213 1023-1298 limits assumed): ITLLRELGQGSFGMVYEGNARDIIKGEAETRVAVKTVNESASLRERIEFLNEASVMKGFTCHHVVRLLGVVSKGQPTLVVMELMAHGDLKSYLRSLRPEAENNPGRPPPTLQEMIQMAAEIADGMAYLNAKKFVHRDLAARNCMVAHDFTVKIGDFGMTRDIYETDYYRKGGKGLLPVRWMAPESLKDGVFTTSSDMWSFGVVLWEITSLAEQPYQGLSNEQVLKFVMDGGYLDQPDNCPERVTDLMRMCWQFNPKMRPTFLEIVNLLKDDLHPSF

[6] = test system: A431 human epidermoid carcinoma cells; experiment: Growth inhibition assay in A431 cells; assay type: cell-based; details: A-431, 72 hours, cell count, read-out: IC50, inhibition of proliferation in A431 cells
Method: A431 human epidermoid carcinoma cells were obtained from the American Type Culture Collection, Rockville, Md. and maintained as monolayers in dMEM (Dulbecco's modified eagle medium)/F12, 50:50 (Gibco/BRL) containing 10% fetal bovine serum. […] The plates were incubated for 72 hours at 37° C. in a humidified atmosphere containing 5% CO2 in air. Cell growth was determined by cell count with a Coulter Model AM electronic cell counter (Coulter Electronics, Inc., Hialeah, Fla.).

[7] = target: T1, EGF receptor autophosphorylation in A431 cells; experiment: Autophosphorylation assay in A431 cells; assay type: cell-based; details: EGF-stimulated EGFR autophosphorylation in A431 cells
Method: as §1
Duplicate sets of cells were treated with a range of concentrations of the designated compound to be tested as an inhibitor for 15 minutes. The cells were then stimulated with 100 ng/mL of EGF for 5 minutes and extracts made as described under the Western Blotting Procedure.

C=CC(=O)Nc1ccc2c(Nc3cccc(Br)c3)ncnc2c1 [Example 3, N-[4-(3-Bromo-phenylamino)-quinazolin-7-yl]acrylamide]
IC50 (c-src tyrosine kinase): > 2500 nM | specificity for the EGF receptor tyrosine kinase as opposed to other tyrosine kinase enzymes ([1]; Table 4): very high specificity | IC50 ([1]; Table 4, read-out: EGFR IC50): 0.36 nM | IC50 ([1]; isolated EGFR kinase, read-out: EGFR Tyrosine Kinase IC50): 0.36 nM | % Control After 2-Hour Incubation ([2]; A431 cells, 2 μM inhibitor, EGFR autophosphorylation): 1% | % Control After 8 Hours in Drug-Free Media Incubation ([2]; A431 cells, 2 μM inhibitor, washed, 8 hours drug-free): 13% | time required for return of 50% of the activity ([2]; A431 cells, 2 μM, drug-free media (Table 3)): 21 h | remaining activity at 2 µM ([2]; 0 hours in drug-free media): 0% | remaining activity at 2 µM ([2]; 4 hours in drug-free media): 12% | remaining activity at 2 µM ([2]; 8 hours in drug-free media): 23% | remaining activity at 2 µM ([2]; 23 hours in drug-free media): 54% | inhibition at 2 µM ([2]; A-431, A431 cells, 2 μM, end of 8 hours washoff, read-out: inhibition of the enzyme (kinase activity) after washoff): 89% | IC50 [3]: > 50000 nM | % T/C ([4]; 3 mg/kg/injection, Day 7): 115% | % T/C ([4]; 3 mg/kg/injection, Day 10): 138% | % T/C ([4]; 3 mg/kg/injection, Day 12): 113% | % T/C ([4]; 30 mg/kg/injection, Day 7): 48% | % T/C ([4]; 30 mg/kg/injection, Day 10): 66% | % T/C ([4]; 30 mg/kg/injection, Day 12): 53% | % T/C ([4]; 100 mg/kg/injection, Day 7): 57% | % T/C ([4]; 100 mg/kg/injection, Day 10): 70% | % T/C ([4]; 100 mg/kg/injection, Day 12): 57% | activity against tumor growth ([4]; 10 or 3 mg/kg/injection IP every 12 hours Days 3-7): No activity | growth delay ([4]; EGFR tumor, IP bid Days 1 through 13, 75 mg/kg): 5 days | activity ([4]; EGFR tumor, IP bid Days 1 through 13, 300 mg/kg): no activity | growth delay ([4]; EGFR tumor, IP bid Days 1 through 13, 190 and 120 mg/kg): 1 days | growth delay ([4]; EGFR tumor, IP bid Days 3 through 7, 30 mg/kg): 2.5 days | growth delay ([4]; EGFR tumor, IP bid Days 3 through 7, 100 mg/kg): 4 days | weight loss, lethality, or clinical signs of toxicity ([4]; any dose level, IP every 12 hours Days 3-7): No weight loss, lethality, or clinical signs of toxicity | IC50 [5]: > 50000 nM | IC50 [6]: 300 ± 90 nM | IC50 [7]: 14 nM
